How the values were obtained:
[1] = system: Pu27 (DNA, G4) TGGGGAGGGTGGGGAGGGTGGGGAAGG; assay: PCR stop assay (Taq polymerase); details: 1x PCR buffer, extension 72 °C, indirect
[2] = system: Pu24I (DNA, G4, inosine at 10 (G-to-I)) TGAGGGTGGGGAGGGTGGGGAAGG; assay: 1H NMR titration (imino proton shifts); details: 150 mM KCl, 25 mM KH2PO4; 1 mM EDTA, pH 7.0, 298 K, 90% H2O/10% D2O; 1.0 mM DNA

With `COc1cc(NC(=O)Nc2nc3c(s2)C[C@]2(C)CC[C@@H]4[C@H](OC(=O)[C@H]4C)[C@H]2[C@@H]3C)cc(OC)c1` as the compound, how does the binding ([1]; inhibition only at higher concentration (500 µM)) read?
Its binding is “weak”.

For `C[C@@H]1C(=O)O[C@H]2[C@H]1CC[C@@]1(C)Cc3sc(NC(=O)Nc4ccc(Oc5ccccc5)cc4)nc3[C@@H](C)[C@H]21`, which binding [2] is on record?
Its binding is “yes”.

And the binding ([1]; 10 µM oligomers, complementary primer, effect at 125 µM, 250 µM)?
Its binding is “weak”.

— PMC3422278 (2012)
